Source: PubChem BioAssay (NCI)
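Cultured in 96-well plates, cells were exposed to test compound for 48 hours across five concentrations. GI50 = concentration required for 50% inhibition of growth. Definition used: TGI = concentration required for complete inhibition of growth.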

What was measured:
Experiment in all cases: growth of human tumour cells (NCI), 48 h
SNB-19 CNS = test system: SNB-19 CNS
SK-MEL-28 melanoma = test system: SK-MEL-28 melanoma
RXF 393 renal = test system: RXF 393 renal
OVCAR-8 ovarian = test system: OVCAR-8 ovarian
DU-145 prostate = test system: DU-145 prostate
SK-MEL-5 melanoma = test system: SK-MEL-5 melanoma
CCRF-CEM leukemia = test system: CCRF-CEM leukemia
786-0 renal = test system: 786-0 renal
NCI/ADR-RES ovarian = test system: NCI/ADR-RES ovarian
HOP-62 NSCLC = test system: HOP-62 NSCLC
OVCAR-3 ovarian = test system: OVCAR-3 ovarian
HT29 colon = test system: HT29 colon
UO-31 renal = test system: UO-31 renal
HCT-116 colon = test system: HCT-116 colon
MDA-MB-231 breast = test system: MDA-MB-231 breast
MDA-MB-435 = test system: MDA-MB-435
SW-620 colon = test system: SW-620 colon
SF-268 CNS = test system: SF-268 CNS
MOLT-4 leukemia = test system: MOLT-4 leukemia
UACC-257 melanoma = test system: UACC-257 melanoma
ACHN renal = test system: ACHN renal
NCI-H226 lung = test system: NCI-H226 lung
SK-OV-3 ovarian = test system: SK-OV-3 ovarian
SK-MEL-2 melanoma = test system: SK-MEL-2 melanoma
NCI-H23 lung = test system: NCI-H23 lung
SNB-75 CNS = test system: SNB-75 CNS
HCC-2998 colon = test system: HCC-2998 colon
TK-10 renal = test system: TK-10 renal
UACC-62 melanoma = test system: UACC-62 melanoma
NCI-H460 lung = test system: NCI-H460 lung
M14 melanoma = test system: M14 melanoma
SN12C renal = test system: SN12C renal
BT-549 breast = test system: BT-549 breast
LOX IMVI melanoma = test system: LOX IMVI melanoma
OVCAR-4 ovarian = test system: OVCAR-4 ovarian
SF-295 CNS = test system: SF-295 CNS
SF-539 CNS = test system: SF-539 CNS
COLO 205 colon = test system: COLO 205 colon
HCT-15 colon = test system: HCT-15 colon
HOP-92 NSCLC = test system: HOP-92 NSCLC
A498 renal = test system: A498 renal
U251 CNS = test system: U251 CNS
HL-60(TB) leukemia = test system: HL-60(TB) leukemia
MALME-3M melanoma = test system: MALME-3M melanoma
NCI-H522 lung = test system: NCI-H522 lung
IGROV1 ovarian = test system: IGROV1 ovarian
OVCAR-5 ovarian = test system: OVCAR-5 ovarian
HS 578T breast = test system: HS 578T breast
EKVX NSCLC = test system: EKVX NSCLC
T-47D breast = test system: T-47D breast
CAKI-1 renal = test system: CAKI-1 renal
KM12 colon = test system: KM12 colon
A549 NSCLC = test system: A549 NSCLC
MDA-MB-468 breast = test system: MDA-MB-468 breast
MCF7 breast = test system: MCF7 breast
K-562 leukemia = test system: K-562 leukemia

CCn1c(SCC(=O)Nc2ccc(-c3nc4ccccc4[nH]3)cc2)nc2ccccc2c1=O
GI50 (SNB-19 CNS): 1750 nM
TGI (SNB-19 CNS): 3310 nM
GI50 (SK-MEL-28 melanoma): 1680 nM
TGI (SK-MEL-28 melanoma): 3050 nM
GI50 (RXF 393 renal): 1710 nM
TGI (RXF 393 renal): 3190 nM
GI50 (OVCAR-8 ovarian): 2090 nM
TGI (OVCAR-8 ovarian): 4600 nM
GI50 (DU-145 prostate): 2020 nM
TGI (DU-145 prostate): 3990 nM
GI50 (SK-MEL-5 melanoma): 1780 nM
TGI (SK-MEL-5 melanoma): 3330 nM
GI50 (CCRF-CEM leukemia): 25000 nM
TGI (CCRF-CEM leukemia): > 100000 nM
GI50 (786-0 renal): 1650 nM
TGI (786-0 renal): 3020 nM
GI50 (NCI/ADR-RES ovarian): 1820 nM
TGI (NCI/ADR-RES ovarian): 3650 nM
GI50 (HOP-62 NSCLC): 1700 nM
TGI (HOP-62 NSCLC): 3180 nM
GI50 (OVCAR-3 ovarian): 1780 nM
TGI (OVCAR-3 ovarian): 3280 nM
GI50 (HT29 colon): 1990 nM
TGI (HT29 colon): 4260 nM
GI50 (UO-31 renal): 1530 nM
TGI (UO-31 renal): 2880 nM
GI50 (HCT-116 colon): 1750 nM
TGI (HCT-116 colon): 3130 nM
GI50 (MDA-MB-231 breast): 1820 nM
TGI (MDA-MB-231 breast): 3350 nM
GI50 (MDA-MB-435): 1730 nM
TGI (MDA-MB-435): 3110 nM
GI50 (SW-620 colon): 1870 nM
TGI (SW-620 colon): 3500 nM
GI50 (SF-268 CNS): 2060 nM
TGI (SF-268 CNS): 4560 nM
GI50 (MOLT-4 leukemia): 4210 nM
TGI (MOLT-4 leukemia): > 100000 nM
GI50 (UACC-257 melanoma): 1790 nM
TGI (UACC-257 melanoma): 3450 nM
GI50 (ACHN renal): 1700 nM
TGI (ACHN renal): 3070 nM
GI50 (NCI-H226 lung): 1670 nM
TGI (NCI-H226 lung): 3600 nM
GI50 (SK-OV-3 ovarian): 1930 nM
TGI (SK-OV-3 ovarian): 3920 nM
GI50 (SK-MEL-2 melanoma): 1910 nM
TGI (SK-MEL-2 melanoma): 3950 nM
GI50 (NCI-H23 lung): 2040 nM
TGI (NCI-H23 lung): 4730 nM
GI50 (SNB-75 CNS): 1290 nM
TGI (SNB-75 CNS): 2610 nM
GI50 (HCC-2998 colon): 2040 nM
TGI (HCC-2998 colon): 4890 nM
GI50 (TK-10 renal): 1800 nM
TGI (TK-10 renal): 3260 nM
GI50 (UACC-62 melanoma): 1560 nM
TGI (UACC-62 melanoma): 2930 nM
GI50 (NCI-H460 lung): 1770 nM
TGI (NCI-H460 lung): 3290 nM
GI50 (M14 melanoma): 1700 nM
TGI (M14 melanoma): 3150 nM
GI50 (SN12C renal): 1470 nM
TGI (SN12C renal): 2820 nM
GI50 (BT-549 breast): 1500 nM
TGI (BT-549 breast): 2860 nM
GI50 (LOX IMVI melanoma): 1700 nM
TGI (LOX IMVI melanoma): 3100 nM
GI50 (OVCAR-4 ovarian): 1750 nM
TGI (OVCAR-4 ovarian): 3200 nM
GI50 (SF-295 CNS): 1670 nM
TGI (SF-295 CNS): 3090 nM
GI50 (SF-539 CNS): 1760 nM
TGI (SF-539 CNS): 3150 nM
GI50 (COLO 205 colon): 2300 nM
TGI (COLO 205 colon): 4270 nM
GI50 (HCT-15 colon): 1720 nM
TGI (HCT-15 colon): 3300 nM
GI50 (HOP-92 NSCLC): 1660 nM
TGI (HOP-92 NSCLC): 4050 nM
GI50 (A498 renal): 1610 nM
TGI (A498 renal): 3180 nM
GI50 (U251 CNS): 1750 nM
TGI (U251 CNS): 3390 nM
GI50 (HL-60(TB) leukemia): 2460 nM
TGI (HL-60(TB) leukemia): 6020 nM
GI50 (MALME-3M melanoma): 1640 nM
TGI (MALME-3M melanoma): 3020 nM
GI50 (NCI-H522 lung): 1770 nM
TGI (NCI-H522 lung): 3510 nM
GI50 (IGROV1 ovarian): 1690 nM
TGI (IGROV1 ovarian): 3330 nM
GI50 (OVCAR-5 ovarian): 1480 nM
TGI (OVCAR-5 ovarian): 2980 nM
GI50 (HS 578T breast): 2060 nM
TGI (HS 578T breast): 4660 nM
GI50 (EKVX NSCLC): 1840 nM
TGI (EKVX NSCLC): 3900 nM
GI50 (T-47D breast): 1710 nM
TGI (T-47D breast): 3490 nM
GI50 (CAKI-1 renal): 1780 nM
TGI (CAKI-1 renal): 3290 nM
GI50 (KM12 colon): 2500 nM
TGI (KM12 colon): 6490 nM
GI50 (A549 NSCLC): 1740 nM
TGI (A549 NSCLC): 3590 nM
GI50 (MDA-MB-468 breast): 1560 nM
TGI (MDA-MB-468 breast): 3040 nM
GI50 (MCF7 breast): 1550 nM
TGI (MCF7 breast): 3000 nM
GI50 (K-562 leukemia): 2910 nM
TGI (K-562 leukemia): > 100000 nM
